Measured values from ChEMBL document CHEMBL4396916, “Novel potent substituted 4-amino-2-thiopyrimidines as dual VEGFR-2 and BRAF kinase inhibitors” (Eur J Med Chem, 2019).
pIC50: −log10 of the molar value.

Legend:
MCF7 = assay: Inhibition of VEGFR2 level in human MCF7 cells at 10 uM measured after 48 hrs by ELISA relative to control; type: functional; conditions: MCF7, 48 h
EKVX = assay: Growth inhibition of human EKVX cells at 10 uM incubated for 48 hrs by sulforhodamine B assay relative to control; type: functional; conditions: read-out: GI
OVCAR-3 = assay: Growth inhibition of human OVCAR3 cells at 10 uM incubated for 48 hrs by sulforhodamine B assay relative to control; type: functional; conditions: OVCAR-3, 48 h, read-out: GI
SK-MEL-28 = assay: Growth inhibition of human SK-MEL-28 cells at 10 uM incubated for 48 hrs by sulforhodamine B assay relative to control; type: functional; conditions: SK-MEL-28, 48 h, read-out: GI
SK-MEL-5 = assay: Growth inhibition of human SK-MEL-5 cells at 10 uM incubated for 48 hrs by sulforhodamine B assay relative to control; type: functional; conditions: SK-MEL-5, 48 h, read-out: GI
SR = assay: Growth inhibition of human SR cells at 10 uM incubated for 48 hrs by sulforhodamine B assay relative to control; type: functional; conditions: read-out: GI
RXF 393 = assay: Growth inhibition of human RXF393 cells at 10 uM incubated for 48 hrs by sulforhodamine B assay relative to control; type: functional; conditions: RXF 393, 48 h, read-out: GI
BT-549 = assay: Growth inhibition of human BT549 cells at 10 uM incubated for 48 hrs by sulforhodamine B assay relative to control; type: functional; conditions: BT-549, 48 h, read-out: GI
HOP-92 = assay: Growth inhibition of human HOP92 cells at 10 uM incubated for 48 hrs by sulforhodamine B assay relative to control; type: functional; conditions: HOP-92, 48 h, read-out: GI
SNB-75 = assay: Growth inhibition of human SNB75 cells at 10 uM incubated for 48 hrs by sulforhodamine B assay relative to control; type: functional; conditions: SNB-75, 48 h, read-out: GI
[1] = molecular target: Platelet-derived growth factor receptor beta (Homo sapiens, UniProt P09619); assay: Inhibition of PDGFR beta (unknown origin)
Chain of Platelet-derived growth factor receptor beta (P09619 whole entry): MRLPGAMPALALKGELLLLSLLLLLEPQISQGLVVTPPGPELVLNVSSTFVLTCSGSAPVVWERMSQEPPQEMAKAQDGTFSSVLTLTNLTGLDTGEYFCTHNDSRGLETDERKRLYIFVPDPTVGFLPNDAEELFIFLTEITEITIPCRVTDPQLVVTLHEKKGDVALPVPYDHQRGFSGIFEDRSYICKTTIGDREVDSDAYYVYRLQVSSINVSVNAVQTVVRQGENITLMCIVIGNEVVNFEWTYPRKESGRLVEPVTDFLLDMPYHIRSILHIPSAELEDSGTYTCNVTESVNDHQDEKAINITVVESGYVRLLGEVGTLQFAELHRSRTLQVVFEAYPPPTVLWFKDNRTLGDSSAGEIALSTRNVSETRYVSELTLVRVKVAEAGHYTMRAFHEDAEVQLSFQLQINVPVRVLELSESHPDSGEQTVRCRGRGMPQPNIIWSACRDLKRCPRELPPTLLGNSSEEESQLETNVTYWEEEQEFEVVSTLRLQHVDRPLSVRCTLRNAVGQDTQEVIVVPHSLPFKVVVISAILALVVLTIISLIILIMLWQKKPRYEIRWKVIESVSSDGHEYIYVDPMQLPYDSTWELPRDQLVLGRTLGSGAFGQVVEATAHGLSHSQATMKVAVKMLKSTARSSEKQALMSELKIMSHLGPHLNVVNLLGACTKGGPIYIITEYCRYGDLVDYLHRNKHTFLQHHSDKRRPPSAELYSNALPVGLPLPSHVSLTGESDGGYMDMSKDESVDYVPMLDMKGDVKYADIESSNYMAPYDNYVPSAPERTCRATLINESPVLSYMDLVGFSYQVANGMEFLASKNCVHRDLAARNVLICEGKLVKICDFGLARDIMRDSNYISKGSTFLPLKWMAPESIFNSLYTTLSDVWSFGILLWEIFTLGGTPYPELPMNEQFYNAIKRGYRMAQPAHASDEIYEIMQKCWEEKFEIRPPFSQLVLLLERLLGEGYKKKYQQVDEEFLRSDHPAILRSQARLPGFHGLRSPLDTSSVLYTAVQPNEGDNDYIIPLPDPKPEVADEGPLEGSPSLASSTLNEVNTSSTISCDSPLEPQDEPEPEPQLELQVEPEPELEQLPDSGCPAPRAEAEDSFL

Hs-578T = assay: Growth inhibition of human Hs578T cells at 10 uM incubated for 48 hrs by sulforhodamine B assay relative to control; type: functional; conditions: read-out: GI
CAKI-1 = assay: Growth inhibition of human Caki1 cells at 10 uM incubated for 48 hrs by sulforhodamine B assay relative to control; type: functional; conditions: CAKI-1, 48 h, read-out: GI
[2] = molecular target: Vascular endothelial growth factor receptor 2 (Homo sapiens, UniProt P35968); assay: Inhibition of human N-terminal GST tagged VEGFR-2 expressed in baculovirus infected Sf9 cells using poly (Glu,Tyr) 4:1 as substrate in presence of ATP by Kinase-Glo luminescence assay
Chain of Vascular endothelial growth factor receptor 2 (P35968 whole entry): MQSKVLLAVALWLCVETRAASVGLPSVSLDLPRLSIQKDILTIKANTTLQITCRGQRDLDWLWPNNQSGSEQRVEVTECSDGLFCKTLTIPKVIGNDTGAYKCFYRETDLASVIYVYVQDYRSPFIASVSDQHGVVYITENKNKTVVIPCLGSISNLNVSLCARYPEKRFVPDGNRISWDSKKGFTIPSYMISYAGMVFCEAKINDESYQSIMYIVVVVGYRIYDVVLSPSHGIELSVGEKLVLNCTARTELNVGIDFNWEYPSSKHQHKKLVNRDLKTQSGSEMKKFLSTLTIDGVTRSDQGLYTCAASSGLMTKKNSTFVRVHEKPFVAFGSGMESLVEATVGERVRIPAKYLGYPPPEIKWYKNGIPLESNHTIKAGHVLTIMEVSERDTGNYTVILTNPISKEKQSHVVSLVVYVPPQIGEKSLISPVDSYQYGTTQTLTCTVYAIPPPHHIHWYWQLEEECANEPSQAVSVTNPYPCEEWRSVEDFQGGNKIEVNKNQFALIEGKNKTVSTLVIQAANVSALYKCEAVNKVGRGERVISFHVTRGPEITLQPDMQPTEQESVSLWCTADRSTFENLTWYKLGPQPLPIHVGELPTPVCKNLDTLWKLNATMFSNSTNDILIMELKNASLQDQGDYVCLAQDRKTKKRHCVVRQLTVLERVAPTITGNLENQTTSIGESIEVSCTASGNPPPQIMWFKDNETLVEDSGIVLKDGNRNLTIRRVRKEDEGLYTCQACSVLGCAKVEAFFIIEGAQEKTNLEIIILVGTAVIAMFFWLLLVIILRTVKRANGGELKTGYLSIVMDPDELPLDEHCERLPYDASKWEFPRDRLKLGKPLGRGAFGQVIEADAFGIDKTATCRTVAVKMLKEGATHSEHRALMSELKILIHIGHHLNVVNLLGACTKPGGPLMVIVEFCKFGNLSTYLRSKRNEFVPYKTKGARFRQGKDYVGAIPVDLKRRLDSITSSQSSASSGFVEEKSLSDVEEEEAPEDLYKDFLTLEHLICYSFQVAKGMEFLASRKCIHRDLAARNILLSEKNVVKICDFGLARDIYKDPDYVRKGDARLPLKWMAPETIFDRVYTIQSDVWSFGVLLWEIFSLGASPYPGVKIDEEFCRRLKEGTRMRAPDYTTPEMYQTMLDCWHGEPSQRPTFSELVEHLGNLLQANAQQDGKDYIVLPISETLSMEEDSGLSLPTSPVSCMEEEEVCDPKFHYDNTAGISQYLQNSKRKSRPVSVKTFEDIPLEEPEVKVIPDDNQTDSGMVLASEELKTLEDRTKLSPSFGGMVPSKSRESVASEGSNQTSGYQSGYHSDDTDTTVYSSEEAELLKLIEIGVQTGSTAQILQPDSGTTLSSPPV

MDA-MB-231 = assay: Growth inhibition of human MDA-MB-231 cells at 10 uM incubated for 48 hrs by sulforhodamine B assay relative to control; type: functional; conditions: MDA-MB-231, 48 h, read-out: GI
HCT-15 = assay: Growth inhibition of human HCT15 cells at 10 uM incubated for 48 hrs by sulforhodamine B assay relative to control; type: functional; conditions: HCT-15, 48 h, read-out: GI
SF-295 = assay: Growth inhibition of human SF295 cells at 10 uM incubated for 48 hrs by sulforhodamine B assay relative to control; type: functional; conditions: SF-295, 48 h, read-out: GI
IGROV-1 = assay: Growth inhibition of human IGROV1 cells at 10 uM incubated for 48 hrs by sulforhodamine B assay relative to control; type: functional; conditions: IGROV-1, 48 h, read-out: GI
HL-60(TB) = assay: Growth inhibition of human HL-60(TB) cells at 10 uM incubated for 48 hrs by sulforhodamine B assay relative to control; type: functional; conditions: HL-60, 48 h, read-out: GI
COLO 205 = assay: Growth inhibition of human COLO205 cells at 10 uM incubated for 48 hrs by sulforhodamine B assay relative to control; type: functional; conditions: COLO 205, 48 h, read-out: GI
KM12 = assay: Growth inhibition of human KM12 cells at 10 uM incubated for 48 hrs by sulforhodamine B assay relative to control; type: functional; conditions: KM12, 48 h, read-out: GI
HT-29 = assay: Growth inhibition of human HT-29 cells at 10 uM incubated for 48 hrs by sulforhodamine B assay relative to control; type: functional; conditions: HT-29, 48 h, read-out: GI
SF-539 = assay: Growth inhibition of human SF539 cells at 10 uM incubated for 48 hrs by sulforhodamine B assay relative to control; type: functional; conditions: SF-539, 48 h, read-out: GI
SW-620 = assay: Growth inhibition of human SW620 cells at 10 uM incubated for 48 hrs by sulforhodamine B assay relative to control; type: functional; conditions: SW-620, 48 h, read-out: GI
M14 = assay: Growth inhibition of human M14 cells at 10 uM incubated for 48 hrs by sulforhodamine B assay relative to control; type: functional; conditions: M14, 48 h, read-out: GI
A549 = assay: Growth inhibition of human A549/ATCC cells at 10 uM incubated for 48 hrs by sulforhodamine B assay relative to control; type: functional; conditions: A549, 48 h, read-out: GI
TK-10 = assay: Growth inhibition of human TK10 cells at 10 uM incubated for 48 hrs by sulforhodamine B assay relative to control; type: functional; conditions: TK-10, 48 h, read-out: GI

| Structure (SMILES) | inhibition at 10 µM (MCF7) | inhibition of growth at 10 µM (EKVX) | inhibition of growth at 10 µM (OVCAR-3) | inhibition of growth at 10 µM (SK-MEL-28) | inhibition of growth at 10 µM (SK-MEL-5) | inhibition of growth at 10 µM (SR) | inhibition of growth at 10 µM (BT-549) | pIC50 [1] | inhibition of growth at 10 µM (CAKI-1) | pIC50 [2] | inhibition of growth at 10 µM (MDA-MB-231) | also measured |
| --- | --- | --- | --- | --- | --- | --- | --- | --- | --- | --- | --- | --- |
| O=C(CSc1nccc(Nc2ccc(N3CCOCC3)cc2)n1)c1ccc(F)cc1 | 33% | 23% | 18% | 19% | 37% | 18% | 31% | 6.82 | 41% | 6.59 | 22% | inhibition of growth at 10 µM (RXF 393): 43%; inhibition of growth at 10 µM (HOP-92): 26%; inhibition of growth at 10 µM (SNB-75): 65%; inhibition of growth at 10 µM (Hs-578T): 39% |
| CCOC(=O)c1ccc(Nc2ccnc(SCC(=O)c3ccc(C#N)cc3)n2)cc1 | 84% | 26% | 21% | 19% | 62% | 46% | 50% | 6.41 | 43% | 6.77 | 19% | inhibition of growth at 10 µM (HCT-15): 24%; inhibition of growth at 10 µM (SF-295): 24%; inhibition of growth at 10 µM (IGROV-1): 21%; inhibition of growth at 10 µM (HL-60(TB)): 24%; inhibition of growth at 10 µM (COLO 205): 29%; inhibition of growth at 10 µM (KM12): 45%; inhibition of growth at 10 µM (HT-29): 24%; inhibition of growth at 10 µM (SF-539): 17%; inhibition of growth at 10 µM (SW-620): 10%; inhibition of growth at 10 µM (M14): 49%; inhibition of growth at 10 µM (A549): 39%; inhibition of growth at 10 µM (TK-10): 10% |
